The test system of one data set is MYC. The experiment in a line: MYC mRNA expression by qPCR in human lung cancer cell lines after LNP transfection. The data set is classed as cell-based. As for the experimental part: Viability was measured using the CellTiter-GLO® assay kit from Promega according to manufacturer's protocol. RNA was isolated from three biological replicates, using the Rneasy® Plus 96-well Kit (Qiagen) following the Manufacturer's protocol. RNA samples were retrotranscribed to cDNA using LunaScript® RT SuperMix Kit (NEB) and analyzed by quantitative PCR (qPCR) (in technical triplicates) using a MYC specific TaqMan™ primer/probe set assay with the TaqMan™ Fast Advanced Master Mix (Thermo Scientific). MYC expression was quantified relative to the expression of GAPDH reference genes using the ΔΔCt method, the untreated and dCas9(no-effector) samples were used as calibrators.
(§1) Guide RNAs (Table 13) were designed across the lung super-enhancer region and tested in combination with the KRAB repressor protein conjugated to an enzymatically dead CAS9. The effector mRNA and guide RNAs were co-delivered using LNP delivery with SSOP with mRNA delivery of GFP as a negative control. NCSLC cell line A549 were seeded in 96-well plates in growth media (10000 cells/well). LNP formulations (2.5 ug/ml) were then added to the cells to transfect the effector mRNA/guide RNA then incubated for 72 hours. RNA was isolated from three biological replicates, using the Rneasy® Plus 96-well Kit (Qiagen) following the Manufacture's protocol. RNA samples were retrotranscribed to cDNA using LunaScript® RT SuperMix Kit (NEB) and analyzed by quantitative PCR (qPCR) (in technical triplicates) using a MYC specific TaqMan™ primer/probe set assay with the TaqMan™ Fast Advanced Master Mix (Thermo Scientific). MYC expression was quantified relative to the expression of GAPDH reference genes using the ΔΔCt method, the untreated samples were used as calibrators.
as §1, with “GuideRNAs” for “Guide RNAs”, “MC3” for “SSOP”
Guide RNAs (GD-29833 and GD-29914) targeted to the MYC super-enhancer were tested in combination with repressor proteins including the histone methyltransferase EZH2 (alone or in conjunction with KRAB) and the DNA methyltransferase MQ1 conjugated to an enzymatically dead CAS9. The effector mRNA and guide RNAs were co-delivered using LNP delivery with SSOP with mRNA delivery of GFP as a negative control. NCSLC cell lines A549 or NCI-H2009 were seeded in 96-well plates in growth media (10000 cells/well). LNP formulations (2.5 ug/ml) were then added to the cells to transfect the effector mRNA/guide RNA then incubated for 72 hours. RNA was isolated from three biological replicates, using the Rneasy® Plus 96-well Kit (Qiagen) following the Manufacture's protocol. RNA samples were retrotranscribed to cDNA using LunaScript® RT SuperMix Kit (NEB) and analyzed by quantitative PCR (qPCR) (in technical triplicates) using a MYC specific TaqMan′ primer/probe set assay with the TaqMan™ Fast Advanced Master Mix (Thermo Scientific). MYC expression was quantified relative to the expression of GAPDH reference genes using the ΔΔCt method, the untreated samples were used as calibrators. […]
For orientation: In qPCR the cycle at which signal appears reflects the starting amount.

Data set [1] concerns A549 cells. The data set can be described thus: A549 viability with ZF9-MQ1 and small molecule inhibitors, alone and combined. The data set is classed as cell-based, human. The note with it: each agent separately.
In data set [2] the test system is A549 cells. The data set can be described thus: A549 cell viability, ZF9-MQ1 alone and with BET or MEK inhibitors (CellTiter-GLO). The note with it: 72-hour incubation, single agent. The format is cell-based, human. How it is done: This example evaluates the effect of ZF9-MQ1 construct on A549 cell viability when used in combination with varying concentrations of JQ1 inhibitor.
A549 cells were seeded at 4,000 cells per well in duplicate plates for cell viability analysis. The 96-well plates were treated in triplicate with GFP or ZF9-MQ1 loaded LNPs at 0.5 ug/mL or 1.0 μg/mL in combination with increasing concentrations of the BET inhibitor JQ1 (concentrations up to 6.25 uM) and incubated. Untreated cells and GFP treated cells were used as controls. After 72-hour incubation, one 96-well plate was lysed with CellTiter-GLO® and luminescence was quantified using the GloMax® Discovery plate reader.
This example evaluates the effect of ZF9-MQ1 construct on A549 cell viability when used in combination with varying concentrations of BET762 inhibitor.
(§2) A549 cells were seeded at 4,000 cells per well in duplicate plates for cell viability analysis. The 96-well plates were treated in triplicate with GFP or ZF9-MQ1 loaded LNPs at 0.5 μg/mL or 1.0 μg/mL in combination with increasing concentrations (concentrations up to 1.25 uM) of the BET inhibitor BET762 and incubated. Untreated cells and GFP treated cells were used as controls. After 72-hour incubation, one 96-well plate was lysed with CellTiter-GLO® and luminescence was quantified using the GloMax® Discovery plate reader.
This example evaluates the effect of ZF9-MQ1 construct on A549 cell viability when used in combination with varying concentrations of BET inhibitor, Birabresib.
as §2, with “0.625 uM for 0.5 μg/ml ZF9-MQ1 treated cells and up to 0.313 uM for 1.0 μg/ml ZF9-MQ1 treated cells)” for “1.25 uM)”, “Birabresib” for “BET762”
This example evaluates the effect of ZF9-MQ1 construct on A549 cell viability when used in combination with varying concentrations of MEK inhibitor, Trametinib.
A549 cells were seeded at 4,000 cells per well in duplicate plates for cell viability analysis. The 96-well plates were treated in triplicate with GFP or ZF9-MQ1 loaded LNPs at 0.5 μg/mL or 1.0 μg/mL in combination with increasing concentrations (concentrations up to 0.05 uM) of the MEK inhibitor Trametinib and incubated. […] After 72-hour incubation, one 96-well plate was lysed with CellTiter-GLO® and luminescence was quantified using the GloMax® Discovery plate reader.

The mark [3] stands for this setting: A549, guide delivered with KRAB or MQ1, 120 hours.
[4] abbreviates: A549, guide delivered with dCAS9-KRAB effector mRNA, MC3 LNP 2.5 ug/ml, 72 hours.
[5] abbreviates: A549, guide delivered with dCAS9-KRAB effector mRNA, SSOP LNP 2.5 ug/ml, 72 hours.
Setting [6] is: A549, guide delivered with dCas9 effectors EZH2, EZH2-KRAB and MQ1, 72 hours.
Where [7] appears, read: NCI-H2009, guide delivered with KRAB or MQ1, 120 hours.
The mark [8] stands for this setting: NCI-H2009, guide delivered with dCas9 effectors EZH2, EZH2-KRAB and MQ1, 72 hours.

In the case of “GD-29914: guide RNA to MYC lung super-enhancer, SEQ ID NO: 108 (guide CAGCACTCTCGCTGACCGCA; listed as DNA, chemistry not given here; listed as Homo sapiens)”, the “MYC mRNA down-regulation (in words)” value with MYC (setting [3]) is on record as “significantly downregulate MYC mRNA levels”; in the data set on MYC (setting [4]), “effectively downregulate MYC mRNA levels”; in the data set with MYC (setting [5]), “effectively downregulate MYC mRNA levels”; with MYC (setting [6]), “effectively downregulate MYC mRNA levels”; in the data set with MYC (setting [7]) it was “significantly downregulate MYC mRNA levels”; with MYC (setting [8]), “effectively downregulate MYC mRNA levels”.

Consider “GD-29833: guide RNA to MYC lung super-enhancer, SEQ ID NO: 96 (guide TGCCACTTCCCCACTAACCC; listed as DNA, chemistry not given here; listed as Homo sapiens)”, for which the “MYC mRNA down-regulation (in words)” value in the data set with MYC (setting [3]) is recorded as “significantly downregulate MYC mRNA levels”; with MYC (setting [4]), “effectively downregulate MYC mRNA levels”; in the data set with MYC (setting [5]), “effectively downregulate MYC mRNA levels”; in the data set with MYC (setting [6]), “effectively downregulate MYC mRNA levels”; in the data set on MYC (setting [7]), “significantly downregulate MYC mRNA levels”; in the data set with MYC (setting [8]), “effectively downregulate MYC mRNA levels”.

`CCNC(=O)C[C@@H]1N=C(c2ccc(Cl)cc2)c2cc(OC)ccc2-n2c(C)nnc21` [BET762]: the “inhibition of A549 cell viability, single agent” value (“inhibition” for short) in the data set on A549 cells [1] was “inhibited cell viability of A549 cells”. For the same compound, in the data set on A549 cells [2], the “A549 cell viability, each agent separately” value is on record as “inhibited cell viability”.

Consider `Cc1sc2c(c1C)C(c1ccc(Cl)cc1)=N[C@@H](CC(=O)Nc1ccc(O)cc1)c1nnc(C)n1-2` [birabresib], for which, in the data set with A549 cells [1], the “inhibition” value is “inhibited cell viability of A549 cells”. In addition, in the data set on A549 cells [2], the “A549 cell viability, each agent separately” value is “inhibited cell viability”.

As for `CC(=O)Nc1cccc(-n2c(=O)n(C3CC3)c(=O)c3c(Nc4ccc(I)cc4F)n(C)c(=O)c(C)c32)c1` [trametinib], the “inhibition” value in the data set with A549 cells [1] is “inhibited cell viability of A549 cells”. For the same compound, in the data set with A549 cells [2], the “A549 cell viability, each agent separately” value is “inhibited cell viability”.
